Experimental data from US9789116B2, “Compositions and methods of modulating short-chain dehydrogenase activity” (CASE WESTERN RESERVE UNIVERSITY, priority 2013, dated 2017).
Entries after “also recorded” stand apart in the source; their conditions may differ.

What was measured:
[1] = test system: C57BL/6J mice irradiated with 11Gy; assay: Survival of irradiated mice receiving marrow allograft (Example 6); assay type: in vivo, mouse; conditions: cohort of 3
Description: The experimental design is depicted in FIG. 50.
Under the conditions of the mouse colony during this study, control mice receiving 100,000-500,000 cells are all dead between days 4-13 of study. […] Such activity would be of particular utility in settings, such as transplantation with umbilical cord stem cells, in which donor cell numbers are limited.

C57BL/6J mice = assay: Liver regeneration after partial hepatectomy, C57BL/6J mice; assay type: in vivo, mouse
NSG mice = assay: Homing of human umbilical cord blood buffy coat cells in NSG mice; assay type: in vivo, mouse
Protocol: FIG. 93 illustrates a schema of an experiment in which immune deficient NSG mice are lethally irradiated (IR) and 12 hours later receive a transplant with CFSE dye labeled buffy coat cells from human umbilical cord blood (UCB), and number of transplanted cells that home and survive in the bone marrow of the recipient mice are then determined by FACS at 16 hours post-transplant. In different arms of the experiment mice are treated with vehicle or with SW033291. Drugs are administered following radiation, following the transplant, and again at 8 hours after the transplant.

Hepatocyte stability = assay type: in vitro ADME; conditions: hepatocytes in culture; printed 'Stable > couple hrs' over two lines
Protocol: (§1) Time to inhibition refers to the time needed to inhibit the generation of NADH by 15-PGDH from the moment with drug is added into the reaction mix. Delta Tm refers to the shift in melting temperature of recombinant 15-PGDH in the presence of drug (with cofactor NADH also present). Concentration of Full Cell Line Reporter Induction refers to the concentration of drug that needs to be added to reporter cell line to achieve maximal induction of the 15-PGDH-luciferase gene fusion reporter cassette, as measured by luciferase assays. Hepatocyte stability refers to the half-life of compound in the presence of hepatocytes in culture. Toxicity refers to the concentration of compound needed to decrease cell numbers in a cell culture assay.

cell culture = assay: Toxicity in a cell culture assay (decrease of cell numbers); assay type: cell-based; conditions: concentration needed to decrease cell numbers in a cell culture assay
Protocol: as §1

[2] = test system: bone marrow SKL cells and stromal cells; assay: Gene expression in bone marrow SKL and CD45(-) stromal cells of treated mice; assay type: in vivo, mouse
Protocol: 2 hours following the last dose bone marrow is harvested and sorted into SKL marked cells that are hematopoietic stem cell enriched and into CD45 (−) cells that are bone marrow stroma cells. RNA was extracted and gene expression determined relative to levels in mice injected with vehicle control.

FVB male mice = assay: Dextran sodium sulfate (DSS) induced colitis; assay type: in vivo, mouse

CCCC[S+]([O-])c1sc2nc(-c3cccs3)cc(-c3ccccc3)c2c1N (centres unmarked) [SW033291, 2-(butylsulfinyl)-4-phenyl-6-(thiophen-2-yl)thieno[2,3-b]pyridin-3-amine]
Number of mice surviving ([1]; 1 × 10^5 cells, Day 1): 3
Number of mice surviving ([1]; 1 × 10^5 cells, Day 2): 3
Number of mice surviving ([1]; 1 × 10^5 cells, Day 3): 3
Number of mice surviving ([1]; 1 × 10^5 cells, Day 4): 2
Number of mice surviving ([1]; 1 × 10^5 cells, Day 5): 1
Number of mice surviving ([1]; 1 × 10^5 cells, Day 6): 0
Number of mice surviving ([1]; 2 × 10^5 cells, Day 1): 3
Number of mice surviving ([1]; 2 × 10^5 cells, Day 2): 3
Number of mice surviving ([1]; 2 × 10^5 cells, Day 3): 3
Number of mice surviving ([1]; 2 × 10^5 cells, Day 4): 3
Number of mice surviving ([1]; 2 × 10^5 cells, Day 5): 3
Number of mice surviving ([1]; 2 × 10^5 cells, Day 6): 2
Number of mice surviving ([1]; 2 × 10^5 cells, Day 7): 2
Number of mice surviving ([1]; 2 × 10^5 cells, Day 8): 2
Number of mice surviving ([1]; 2 × 10^5 cells, Day 9): 2
Number of mice surviving ([1]; 2 × 10^5 cells, Day 10): 2
Number of mice surviving ([1]; 2 × 10^5 cells, Day 11): 2
Number of mice surviving ([1]; 2 × 10^5 cells, Day 12): 1
Number of mice surviving ([1]; 2 × 10^5 cells, Day 13): 0
Number of mice surviving ([1]; 5 × 10^5 cells, Day 1): 3
Number of mice surviving ([1]; 5 × 10^5 cells, Day 2): 3
Number of mice surviving ([1]; 5 × 10^5 cells, Day 3): 3
Number of mice surviving ([1]; 5 × 10^5 cells, Day 4): 3
Number of mice surviving ([1]; 5 × 10^5 cells, Day 5): 3
Number of mice surviving ([1]; 5 × 10^5 cells, Day 6): 3
Number of mice surviving ([1]; 5 × 10^5 cells, Day 7): 3
Number of mice surviving ([1]; 5 × 10^5 cells, Day 8): 2
Number of mice surviving ([1]; 5 × 10^5 cells, Day 9): 2
Number of mice surviving ([1]; 5 × 10^5 cells, Day 10): 2
Number of mice surviving ([1]; 5 × 10^5 cells, Day 11): 2
Number of mice surviving ([1]; 5 × 10^5 cells, Day 12): 2
Number of mice surviving ([1]; 5 × 10^5 cells, Day 13): 2
mitosis per high powered field in liver (C57BL/6J mice; 5 mg/kg IP daily, post-operative days 3 and 4): significantly increased hepatic mitosis; also recorded: significantly increased numbers of mitotic liver cells
serum ALT levels (C57BL/6J mice; one mouse each, 5 mg/kg IP bid, post-operative days 1-7): lower
increase in numbers of homed human cells in recipient bone marrow (NSG mice): ~2 fold
Hepatocyte stability (Hepatocyte stability): couple hrs
Toxicity (cell culture): >10 µM
induction of CXCL12 [2]: greater than 4 fold
induction of SCF [2]: greater than 4 fold
change from baseline weight (FVB male mice; 22 days, P=0.001): greater weight at all time points
colon ulcer formation (FVB male mice; colonoscopy days 8, 11, 15): prevents two-thirds of ulcer formation
reduction of length of ulcerated mucosa versus control (FVB male mice; day 15, P=0.045): 61%
body weight and colon length (FVB male mice; day 22): greater body weight and greater colon lengths
MEICS scores (FVB male mice; days 8, 11 and 15): significantly less colitis activity
